Laboratory results from PMC10765884, “MC180295 is a highly potent and selective CDK9 inhibitor with preclinical in vitro and in vivo efficacy in cancer” (Clinical Epigenetics, 2024).
“Also recorded” adds a separate entry of the source.

Key:
CDK9 = molecular target: T1, CDK9 (Homo sapiens, UniProt P50750); experiment: CDK9 inhibitory activity of MC180295 and its enantiomers; assay type: biochemical; conditions: Fig. S3E
T1 construct: purchased Reaction Biology Corp
Description: CDK enzymatic assays were performed by Reaction Biology Corp. (Malvern, PA), using 10 µM ATP for determining MC180295 IC50 values for each CDK family member for which assays were available. Kinase enzymatic assays were also performed by Nanosyn (Santa Clara, CA), using microfluidic technology and MC180295 IC50 curves against 10 CDKs. Selectivity against CDK9 was confirmed for the enantiomers at Reaction Biology Corp. (Malvern, PA).

[1] = tested on: GFP silenced by a methylated CMV promoter in YB5 cells; experiment: Live-cell assay for GFP reactivation in YB5 cells; assay type: cell-based; conditions: for lowest concentration reactivating GFP: after 24 h treatment, FACS
Description: To identify novel epigenetic targets, we previously used a phenotype-based screen, the YB5 SW48 daughter cell line reporter system, to identify drugs that can reactivate GFP silenced by a methylated CMV promoter. […] […]. To better understand MC180295's antitumor effects, we tested its growth inhibition in a panel of cancer cell lines.
The live-cell assay for GFP reactivation in YB5 cells was done as previously described. Cells were treated with a single dose of drug 24 h after seeding at low density, and GFP fluorescence measured in a Millipore Guava flow cytometer (EMD, Millipore) instrument, or by imaging in a Cytation instrument (Agilent). Cancer cell lines (listed in Additional file 1: Fig. S1A) were obtained from ATCC or the Temple/Fox Chase Cellular Repository and cultured in the recommended medium. To measure growth inhibition, cells were seeded in 96-well plates at 40% confluency. Fresh medium was changed the next day and drugs were added directly. Drug-free fresh medium was changed on the fourth day. The cells were collected on day 5 by trypsin, suspended in medium, mixed with trypan blue (Thermo Fisher Scientific) (1:1 ratio), and counted using a LUNA II automated cell counter. Each sample was counted at least three times, and average numbers used for the analysis. Each treatment condition was performed in biological triplicates.

SW48 cells = experiment: SW48 colon cancer xenograft in NSG mice; assay type: in vivo; conditions: for survival / tumor growth / tumor size: SW48 s.c. in NSG mice, 20 mg/kg i.p. q.o.d.; for tumor growth / tumor size: vs vehicle
Description: Fig. 3 Antitumor, survival, and metabolic effects of MC180295 and its enantiomers, MC180379 and MC180380. A Antitumor effects of MC180295, MC180379, and MC180380. NSG mice were inoculated (s.c.) with 2 × 10^6 SW48 cells. Eleven days later, when tumors were palpable, 20 mg/kg MC180295, MC180379, MC180380, or vehicle were administered (i.p.) every other day (q.o.d.). Tumor sizes were measured using a caliper. […] . C Antitumor effects of MC180379 and MC180380. NSG mice were inoculated (s.c.) with 1 × 10^6 HT29 cells. Twelve days later, when tumors were palpable, 20 mg/kg MC180379, MC180380, or vehicle were administered (i.p.) q.o.d. Tumor sizes were measured using a caliper. D HT29-xenografted mouse survival following (i.p.) q.o.d. dosing with 20 mg/kg MC180379 or MC180380. E NSG mice were inoculated (i.p.) with 5 × 10^5 MV4-11-luc cells. Four days later, when substantial tumor burden was evident by bioluminescence imaging, MC180379, MC180380, or vehicle were administered (i.p.) q.o.d at 20 mg/kg. Luciferase expression was quantified and calculated. F Mouse survival in days. […] G In vitro liver microsome stability and rat hepatocyte/Sprague–Dawley stability assay comparing MC180379 to MC180380. The dog breed was beagle and the mouse microsome strain was CD-1. All sexes (including the hepatocytes) were male except the human microsomes which were mixed gender. Significances were calculated using log-rank (Mantel-Cox) or Student’s t tests.
Fig. 4 Antitumor and survival-extending properties of a hypomethylating agent (DAC) combined with MC180295. A Antitumor effects of MC180295 and MC180295 + DAC. NSG mice were inoculated (s.c.) with 2 × 10^6 SW48 cells. Eleven days later, when tumors were palpable, 20 mg/kg MC180295 or vehicle were administered (i.p.) q.o.d. 0.5 mg/kg DAC was administered (i.p.) daily. Tumor sizes were measured using a caliper. B Mouse survival in days. 20 mg/kg MC180295 was administered (i.p.) q.o.d. 0.5 mg/kg DAC was administered (i.p.) daily. C NSG mice were inoculated (i.p.) with 5 × 10^5 MV4-11-luc cells. Four days later, when substantial tumor burden was evident by bioluminescence imaging, MC180295 (20 mg/kg) or vehicle were administered (i.p.) every other day. 0.5 mg/kg DAC was administered (i.p.) daily. Luciferase expression was quantified and calculated. […] E Antitumor effects of MC180380 and MC180380 + DAC. NSG mice were inoculated (s.c.) with 2 × 10^6 SW48 cells. Eleven days later, when tumors were palpable, 10 mg/kg MC180380, 20 mg/kg MC180380, or vehicle was administered (i.p.) q.o.d. 0.5 mg/kg DAC was administered (i.p.) daily. Mouse survival shown in days. Significances were calculated using log-rank (Mantel-Cox) or Student's t tests. Data are shown as means ± SEMs. ***p < 0.001
For the s.c. SW48 model, 2 × 10^6 cells were injected into the flanks of randomly assigned, gender-matched 8–10-week-old NSG mice.

T1 sequence (P50750 whole entry): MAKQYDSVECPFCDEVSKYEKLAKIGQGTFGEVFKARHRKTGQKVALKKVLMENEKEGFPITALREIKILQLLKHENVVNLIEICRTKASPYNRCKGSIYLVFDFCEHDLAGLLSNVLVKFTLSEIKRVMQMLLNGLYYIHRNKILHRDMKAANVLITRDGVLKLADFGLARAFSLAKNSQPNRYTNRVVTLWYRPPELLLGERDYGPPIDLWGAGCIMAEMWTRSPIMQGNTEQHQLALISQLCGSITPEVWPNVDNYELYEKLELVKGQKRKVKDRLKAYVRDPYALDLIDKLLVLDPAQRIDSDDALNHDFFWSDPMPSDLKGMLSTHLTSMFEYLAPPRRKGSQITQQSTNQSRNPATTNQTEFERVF
T1 sequence (O60563 whole entry partner): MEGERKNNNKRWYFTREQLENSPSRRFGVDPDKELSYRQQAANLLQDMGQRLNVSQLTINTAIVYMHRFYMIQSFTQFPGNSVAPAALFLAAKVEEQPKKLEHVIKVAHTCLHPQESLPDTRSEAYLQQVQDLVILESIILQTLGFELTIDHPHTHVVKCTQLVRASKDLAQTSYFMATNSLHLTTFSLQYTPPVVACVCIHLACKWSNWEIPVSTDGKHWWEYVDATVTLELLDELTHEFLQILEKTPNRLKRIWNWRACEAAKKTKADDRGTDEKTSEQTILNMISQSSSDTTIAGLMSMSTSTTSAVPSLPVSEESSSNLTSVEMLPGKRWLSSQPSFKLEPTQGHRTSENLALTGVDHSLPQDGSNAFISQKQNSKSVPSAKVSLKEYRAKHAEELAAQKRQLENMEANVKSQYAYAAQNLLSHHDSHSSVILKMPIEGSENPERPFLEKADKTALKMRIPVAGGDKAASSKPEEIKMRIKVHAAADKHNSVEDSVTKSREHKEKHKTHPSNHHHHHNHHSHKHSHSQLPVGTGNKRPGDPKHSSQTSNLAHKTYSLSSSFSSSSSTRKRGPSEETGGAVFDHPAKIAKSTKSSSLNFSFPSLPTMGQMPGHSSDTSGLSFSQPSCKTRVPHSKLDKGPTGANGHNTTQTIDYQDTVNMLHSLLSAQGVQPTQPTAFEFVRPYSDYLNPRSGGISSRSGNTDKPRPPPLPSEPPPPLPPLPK

SMILES	IC50 (CDK9) [nM]	potency in inducing GFP (comparison of enantiomers) ([1]; 24 h and 4 days after one-time treatment)	lowest concentration reactivating GFP [1] [nM]	overall survival, dose comparison (SW48 cells; SW48 in NSG mice, 10 or 20 mg/kg MC180380 i.p. q.o.d.)	survival (SW48 cells; 20 mg/kg)	tumor growth / tumor size (SW48 cells; 20 mg/kg)	tumor growth / tumor size (SW48 cells; listed as MC190295, 20 mg/kg)	survival (SW48 cells)
Nc1nc(N[C@H]2C[C@@H]3CC[C@H]2C3)sc1C(=O)c1ccccc1[N+](=O)[O-] [MC180380]	9	more potent than MC18379 in inducing GFP; also recorded: epigenetically more potent than MC180379	100	20 mg/kg led to better overall survival than 10 mg/kg	no survival difference	–	–	–
Nc1nc(N[C@H]2C[C@@H]3CC[C@H]2C3)sc1C(=O)c1ccccc1[N+](=O)[O-] (relative stereo) [MC180295]	11	–	100	–	prolong overall survival	significantly reduce tumor size	no statistical difference in tumor size	–
Nc1nc(N[C@@H]2C[C@H]3CC[C@@H]2C3)sc1C(=O)c1ccccc1[N+](=O)[O-] [MC180379]	11	–	500	–	–	–	–	no survival difference
